Results taken from PMC6149664, “Synthesis and In Vitro Antimycobacterial Activity of Novel N-Arylpiperazines Containing an Ethane-1,2-diyl Connecting Chain” (Molecules : A Journal of Synthetic Chemistry and Natural …, 2017).
Read-outs that look alike come from different tables or passages of the source.

Assays:
[1] = assay type: physicochemical; parameters: key to RM (RP-TLC): RM = log(1/Rf - 1), from Rf in HCl/acetone mobile phase
Protocol: In the RP-TLC, silica gel plates impregnated by a hand with a variously concentrated silicone oil in heptane (a strong hydrophobic agent) were used as a non-polar stationary phase. Optimal differences in RM values within both homological groups 8a–d and 8e–h were observed if 1% silicone oil in heptane was chosen (Tables 1 and S1 in Supplementary Materials).
The RM values were calculated according to Equation (5) from the Rf parameters observed in a SM mobile phase: hydrochloric acid (c = 1.0 M)/acetone (4:1, v/v):RM = log (1/Rf – 1)(5)
For the experiments, aluminium sheets pre-coated with silica gel 60 F254 (0.25 mm thickness; Merck) were impregnated by a variously concentrated silicone oil in heptane, which ranged from 1% to 5%. The plates were separately spotted with 2 µL of methanolic solutions of each compound (c = 1 mg/mL), starting points were 1 cm from a bottom edge of these plates. The chromatographic plates were developed in glass developing chambers saturated for 30 min by the SM mobile phase. Development was carried out upon 15 cm from a starting line by an ascending technique. After being developed, the plates were dried at room temperature. Detection of zones was performed under iodine vapours/UV light at λ = 254 nm. Each experiment was run in triplicate at 21 °C, the RM values of analytes were calculated separately for each run.
Optimal differences in RM values within both homological groups 8a–d and 8e–h were observed if 1% silicone oil in heptane was chosen. The Rfs were found in a range from 0.19 (8h) to 0.78 (8a; Table 1). All the calculated average RM values were summarized in Table S1 (Supplementary Materials).

[2] = UV/Vis spectra of methanolic solutions (log ε); assay type: physicochemical; conditions: methanolic solution c = 3.0 × 10^−5 M; for log ε2(Ch-T): charge-transfer maximum λ2(Ch-T) = 238–240 nm; for log ε1: λ1 = 208–210 nm; for log ε3: λ3 = 274–276 nm
Excerpt: Electronic properties of the inspected compounds 8a–h (Table 3) were characterized by logarithms of molar absorption coefficients (log ε) of their methanolic solutions (c = 3.0 × 10^−5 M) investigated in the UV/Vis region of the spectrum.
The UV/Vis spectra of methanolic solutions of the analyzed compounds 8a–h (c = 3.0 × 10^−5 M) were estimated on the 8452A Diode Array spectrophotometer HP-8452A (Hewlett Packard, Palo Alto, CA, USA). Methanol for UV-spectroscopy (Merck) was used for the preparation of these solutions.
Results of the UV/Vis analyses were collected and stored digitally using the ChemStation controller software (Agilent Technologies, Waldbronn, Germany). The HP-8452A apparatus measured a complete range of a spectrum from 190 nm to 820 nm.
The log ε values characterizing methanolic solutions of the analyzed compounds 8a–h (c = 3.0 × 10^−5 M) were estimated at λ1 = 208–210 nm, λ2(Ch-T) = 238–240 nm and λ3 = 274–276 nm (Table 3), respectively, in a near ultraviolet (quarz) region of the electromagnetic spectrum between 200 and 400 nm. The log ε values for the observed absorption maxima were calculated according to the Lambert-Beer´s law discussed in [47], for example, and expressed by Equation (8):A = ε × c × l(8) where the A parameter represented the absorbance of a solution, the descriptor ε was a molar absorption coefficient (in the L/mol/cm units) and l was the path length (in the cm units).

[3] = tested on: M. kansasii CNCTC My 235/80 (identical with ATCC 12478); experiment: In vitro antimycobacterial MIC, dilution-micromethod in Šula semisynthetic medium; assay type: cell-based, Mycobacterium kansasii; conditions: Mycobacterium kansasii, read-out: MIC, MK My 235/80
[4] = tested on: M. avium CNCTC My 330/80 (identical with ATCC 25291); experiment: as above; assay type: cell-based; conditions: Mycobacterium avium
M. kansasii CIT11/06 = experiment: In vitro antimycobacterial MIC (IC90), alamarBlue 96-well assay in Middlebrook broth; assay type: cell-based, Mycobacterium kansasii; conditions: Mycobacterium kansasii, CIT11/06, 168 h, 7 days incubation, read-out: MIC, MK CIT11/06
[5] = tested on: M. avium subsp. paratuberculosis CIT03; experiment: microbe, parasite or virus in culture; assay type: cell-based; conditions: Mycobacterium avium, 168 h; 7 days incubation, alamarBlue; MIC = IC90; read-out: MIC, MAP CIT03
[6] = tested on: M. avium intracellulare ATCC 13950; experiment: In vitro antimycobacterial MIC (IC90), alamarBlue 96-well assay in Middlebrook broth; assay type: cell-based, Mycobacterium avium intracellulare; conditions: Mycobacterium avium, ATCC13950, 168 h, 7 days incubation, read-out: MIC, MAI ATCC 13950
[7] = tested on: M. avium hominissuis CIT10/08; experiment: as above; assay type: cell-based, Mycobacterium avium hominissuis; conditions: Mycobacterium avium, 168 h, 7 days incubation, read-out: MIC, MAH CIT10/08
[8] = silica gel plates impregnated with 3% silicone oil in heptane
[9] = silica gel plates impregnated with 5% silicone oil in heptane
[10] = ATCC12478, 168 h, 7 d cultivation
[11] = ATCC12478, 336 h, 14 d cultivation
[12] = ATCC12478, 504 h, 21 d cultivation
[13] = ATCC25291, 336 h, 14 d cultivation, read-out: MIC, MA My 330/88
[14] = ATCC25291, 504 h, 21 d cultivation, read-out: MIC, MA My 330/88
[15] = ATCC25291, 336 h, 14-d/21-d, read-out: MIC against M. avium CNCTC My 330/80

With `CCCOC(=O)Nc1ccc(C(O)CN2CCN(c3ccccc3F)CC2)cc1.Cl` (stereo not drawn) [8g, 1-(2-Hydroxy-2-{4-[(propoxycarbonyl)amino]phenyl}ethyl)-4-(2-fluorophenyl)piperazin-1-ium chloride] the “RM, lipophilicity index (RP-TLC)” value [1] was 0.39, the “RM (RP-TLC)” value [1, 8] was 0.58 and the “RM (RP-TLC)” value [1, 9] was 0.55. The “log ε2(Ch-T)” value [2] was 4.54, the “log ε1” value [2] was 4.47 and the “log ε3” value [2] was 3.52. The MIC [3, 10] was 125 µM, the MIC [3, 11] was > 250 µM and the MIC [3, 12] was > 250 µM. For the same compound, the MIC [4, 13] was > 250 µM, the MIC [4, 14] was > 250 µM and the MIC (M. kansasii CIT11/06) was > 571 µM. The MIC [5] was > 571 µM, the MIC [6] was > 71 µM and the MIC [7] was > 571 µM.
For `COC(=O)Nc1ccc(C(O)CN2CCN(c3ccccc3F)CC2)cc1.Cl` (stereo not drawn) [8e, 1-(2-Hydroxy-2-{4-[(methoxycarbonyl)amino]phenyl}ethyl)-4-(2-fluorophenyl)piperazin-1-ium chloride], the “RM (RP-TLC)” value [1, 8] was 0.19, the “RM (RP-TLC)” value [1, 9] was 0.25 and the “log ε2(Ch-T)” value [2] was 4.67. The “log ε1” value [2] was 4.61, the “log ε3” value [2] was 3.67 and the MIC [3, 10] was 125 µM. For the same compound, the MIC [3, 11] was 500 µM, the MIC [3, 12] was 500 µM and the MIC [4, 13] was 250 µM. For the same compound, the MIC [4, 14] was 500 µM, the MIC (M. kansasii CIT11/06) was > 610 µM and the MIC [5] was > 610 µM. For the same compound, the MIC [6] was > 610 µM and the MIC [7] was > 610 µM.
With `COC(=O)Nc1cccc(C(O)CN2CCN(c3ccccc3F)CC2)c1.Cl` (stereo not drawn) [8a, 1-(2-Hydroxy-2-{3-[(methoxycarbonyl)amino]phenyl}ethyl)-4-(2-fluorophenyl)piperazin-1-ium chloride] the “RM (RP-TLC)” value [1, 8] was -0.16, the “RM (RP-TLC)” value [1, 9] was -0.05 and the “log ε2(Ch-T)” value [2] was 4.30. The “log ε1” value [2] was 4.30, the “log ε3” value [2] was 3.45 and the MIC [3, 10] was 125 µM. It also gave an MIC [3, 11] of 500 µM, an MIC [3, 12] of 1000 µM and an MIC [4, 15] of 500 µM. The MIC [4, 13] was 500 µM, the MIC [4, 14] was 500 µM and the MIC (M. kansasii CIT11/06) was > 610 µM. The MIC [5] was > 610 µM, the MIC [6] was > 610 µM and the MIC [7] was > 610 µM.
In the case of `CCOC(=O)Nc1cccc(C(O)CN2CCN(c3ccccc3F)CC2)c1.Cl` (stereo not drawn) [8b, 1-(2-{3-[(Ethoxycarbonyl)amino]phenyl}-2-hydroxyethyl)-4-(2-fluorophenyl)piperazin-1-ium chloride], the “RM (RP-TLC)” value [1, 8] was -0.03, the “RM (RP-TLC)” value [1, 9] was 0.11 and the “log ε2(Ch-T)” value [2] was 4.33. The “log ε1” value [2] was 4.31, the “log ε3” value [2] was 3.40 and the MIC [3, 10] was 62.5 µM. The MIC [3, 11] was 250 µM, the MIC [3, 12] was 250 µM and the MIC [4, 13] was 250 µM. For the same compound, the MIC [4, 14] was 250 µM, the MIC (M. kansasii CIT11/06) was 295 µM and the MIC [5] was > 590 µM. For the same compound, the MIC [6] was > 590 µM and the MIC [7] was > 590 µM.
For `CCOC(=O)Nc1ccc(C(O)CN2CCN(c3ccccc3F)CC2)cc1.Cl` (stereo not drawn) [8f, 1-(2-{4-[(Ethoxycarbonyl)amino]phenyl}-2-hydroxyethyl)-4-(2-fluorophenyl)piperazin-1-ium chloride], the “RM, lipophilicity index (RP-TLC)” value [1] was 0.19, the “RM (RP-TLC)” value [1, 8] was 0.31 and the “RM (RP-TLC)” value [1, 9] was 0.41. The “log ε2(Ch-T)” value [2] was 4.60, the “log ε1” value [2] was 4.59 and the “log ε3” value [2] was 3.60. The MIC [3, 10] was 125 µM, the MIC [3, 11] was > 250 µM and the MIC [3, 12] was > 250 µM. The MIC [4, 13] was > 250 µM, the MIC [4, 14] was > 250 µM and the MIC (M. kansasii CIT11/06) was 295 µM. For the same compound, the MIC [5] was > 590 µM, the MIC [6] was > 590 µM and the MIC [7] was > 590 µM.
In the case of `CCCCOC(=O)Nc1ccc(C(O)CN2CCN(c3ccccc3F)CC2)cc1.Cl` (stereo not drawn) [8h, 1-(2-{4-[(Butoxycarbonyl)amino]phenyl}-2-hydroxyethyl)-4-(2-fluorophenyl)piperazin-1-ium chloride], the “RM, lipophilicity index (RP-TLC)” value [1] was 0.63, the “RM (RP-TLC)” value [1, 8] was 0.83 and the “RM (RP-TLC)” value [1, 9] was 0.83. For the same compound, the “log ε2(Ch-T)” value [2] was 4.42, the “log ε1” value [2] was 4.34 and the “log ε3” value [2] was 3.42. For the same compound, the MIC [3, 10] was 62.5 µM, the MIC [3, 11] was > 125 µM and the MIC [3, 12] was > 125 µM. The MIC [4, 13] was > 250 µM, the MIC [4, 14] was 250 µM and the MIC (M. kansasii CIT11/06) was > 553 µM. The MIC [5] was > 553 µM, the MIC [6] was > 553 µM and the MIC [7] was > 553 µM.
In the case of `CCCCOC(=O)Nc1cccc(C(O)CN2CCN(c3ccccc3F)CC2)c1.Cl` (stereo not drawn) [8d, 1-(2-{3-[(Butoxycarbonyl)amino]phenyl}-2-hydroxyethyl)-4-(2-fluorophenyl)piperazin-1-ium chloride], the “RM, lipophilicity index (RP-TLC)” value [1] was 0.01, the “RM (RP-TLC)” value [1, 9] was 0.64 and the “log ε2(Ch-T)” value [2] was 4.32. The “log ε1” value [2] was 4.31, the “log ε3” value [2] was 3.49 and the MIC [3, 10] was 32 µM. For the same compound, the MIC [3, 11] was 62.5 µM, the MIC [3, 12] was 62.5 µM and the MIC [4, 15] was 62.5 µM. The MIC [4, 13] was 62.5 µM, the MIC [4, 14] was 62.5 µM and the MIC (M. kansasii CIT11/06) was > 553 µM. For the same compound, the MIC [5] was > 53 µM, the MIC [6] was > 553 µM and the MIC [7] was > 553 µM.
In the case of `CCCOC(=O)Nc1cccc(C(O)CN2CCN(c3ccccc3F)CC2)c1.Cl` (stereo not drawn) [8c, 1-(2-Hydroxy-2-{3-[(propoxycarbonyl)amino]phenyl}ethyl)-4-(2-fluorophenyl)piperazin-1-ium chloride], the “RM (RP-TLC)” value [1, 8] was 0.42, the “RM (RP-TLC)” value [1, 9] was 0.44 and the “log ε2(Ch-T)” value [2] was 4.37. For the same compound, the “log ε1” value [2] was 4.30, the “log ε3” value [2] was 3.42 and the MIC ([3]; ATCC12478, 168 h) was 62.5 µM. It also gave an MIC [3, 11] of 125 µM, an MIC [3, 12] of 125 µM and an MIC [4, 13] of 125 µM. For the same compound, the MIC [4, 14] was 250 µM, the MIC (M. kansasii CIT11/06) was > 571 µM and the MIC [5] was > 571 µM. The MIC [6] was > 571 µM and the MIC [7] was > 571 µM.
